Results reported in patent publication US4556677A, “Alkane and alkene derivatives and their use” (Farmos Group Ltd., priority 1981, dated 1985).

Experiments:
immature mouse uterus [1] = test: antiestrogenic effect in vivo, inhibition of oestradiol induced uterus weight increase in immature mice
Description: (§1) The estrogen-antiestrogen (progesterone-antiprogesterone) effect in vivo was determined as follows:
The antiestrogenic effects of the molecules were determined in a similar manner in immature mice. In this case, the ability of the molecules to inhibit estrogen-induced uterus weight increase was investigated, too.
The compound 1 at a dose of 0.5 mg/kg caused a 50% inhibition of oestradiol induced effect on mouse uterus.
(§2) In Table 2 a summary of the oestrogenic/antioestrogenic and progestanic/antiprogestanic effect of some of the compounds can be seen. The percentages refer to increase/reduction in mice uterus weights.

mouse uterus [2] = test: antiprogestanic/synergistic effect in vivo, given together with medroxyprogesterone acetate, mouse uterus weight; conditions: vs 20% for the acetate alone
mouse uterus [3] = test: progestanic effect in vivo, reduction of mouse uterus weight; conditions: given alone
Description: as §1
(§3) The (anti)progestanic effects were studied in a similar manners as the estrogenic ones. Medroxyprogesterone acetate, which decreases uterus weight, was used as reference.
(§4) The progestanic and antiprogestanic effects of compounds were measured as described earlier. The compound No. 2 reduced the weight of mouse uterus by 49% compared to control while medroxyprogesterone acetate gave 40% reduction.
as §2

[4] = test system: MCF-7 human mammary adenocarcinoma cell line; test: anti-tumour effect in vitro, growth of MCF-7 cells (bioluminescence ATP assay); type: cell-based; conditions: Homo sapiens, MCF7; MCF-7, Table 3; read-out: Antitumour effect (IC50 = concentration of compound where 50% inhibition of cell growth could be seen)
Description: The anti-tumour effect was studied in vitro as follows:
The growth of MCF-7 cell line (human mammary adenocarcinoma, known to be estrogen-dependent) was evaluated in the presence or absence of estradiol, medroxyprogesterone acetate or the molecules to be investigated. Combinations of molecule plus estradiol and molecule plus medroxyprogesterone were also studied. The amount of living cells after 4 h, 24 h and 48 h incubations were determined by bioluminescence assay (intracellular ATP determination).
The antitumour effects of the compounds had been tested in vitro against MCF-7 human mammary adenocarcinoma cell line and in vivo against DMBA-induced rat mammary adenocarcinomas and transplantable mammary adenocarcinoma.
In table 3 the antitumour effects of certain compounds can be seen.

estrogen receptors = target: T1, estrogen receptors (Rattus norvegicus, UniProt P06211); test: affinity to estrogen receptors, competition with 3H-labelled 17-β-estradiol (dextran-charcoal method); type: binding; conditions: rat uterus cytosol, Table 1; read-out: Affinity (concentration of compound where 50% competition (inhibition) with 3H-estradiol occurred)
T1 construct: rat uterus cytosol preparation; from tissue; host or cells: rat uterus cytosol
T1 sequence (P06211 1-600): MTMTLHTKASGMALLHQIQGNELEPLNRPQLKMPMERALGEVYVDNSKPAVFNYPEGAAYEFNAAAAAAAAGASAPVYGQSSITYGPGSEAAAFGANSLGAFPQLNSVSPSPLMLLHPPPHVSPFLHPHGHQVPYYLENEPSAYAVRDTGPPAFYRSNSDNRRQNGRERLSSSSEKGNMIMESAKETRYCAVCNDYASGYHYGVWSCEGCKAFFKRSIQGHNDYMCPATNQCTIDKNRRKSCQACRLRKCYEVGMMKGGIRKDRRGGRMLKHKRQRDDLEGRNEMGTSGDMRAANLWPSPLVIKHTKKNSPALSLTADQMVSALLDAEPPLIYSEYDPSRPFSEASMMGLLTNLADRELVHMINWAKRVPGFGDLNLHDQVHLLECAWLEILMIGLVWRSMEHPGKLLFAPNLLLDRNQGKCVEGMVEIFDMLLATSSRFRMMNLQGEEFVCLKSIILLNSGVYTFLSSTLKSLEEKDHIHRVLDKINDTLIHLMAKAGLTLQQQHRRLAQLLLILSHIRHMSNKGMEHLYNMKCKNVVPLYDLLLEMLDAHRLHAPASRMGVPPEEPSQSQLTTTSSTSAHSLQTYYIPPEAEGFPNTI
Description: The affinity to estrogen receptors was determined by the ability of the molecules to compete with ^3 H-labelled 17-β-estradiol in rat uterus cytosol preparation. After incubation, receptor-bound and receptor-unbound ligands were separated by a known dextrancharcoal method. (Korenman, S. G.: "Comparative binding affinity of estrogens and its relation to estrogenic potency". Steroids 13: 163-177, 1969). […] The results in table 1 are shown as follows: | with ^3 H--estradiol occurred

mouse uterus [5] = test: antiprogestanic/synergistic effect in vivo, given together with medroxyprogesterone acetate, mouse uterus weight
Description: as §1, §3, §4, §2

immature mouse uterus [6] = test: estrogenic effect in vivo, immature mouse uterus weight
Description: as §1
The estrogenic properties of the molecules were determined by administering the molecules, suspended in sesam oil, subcutaneously to 21 days old immature mice on three consecutive days. The mice were killed on the fourth day and the uterus was weighed. Estradiol (positive control) increases the weight of the uterus. The weight correlates with the estrogenic effect of the molecules.
The estrogenic effect of compounds of the invention as measured by their ability to increase the weight of immature mouse uterus was usually far less than that of oestradiol, the positive control. […] At the dose of 0.5 mg/kg the oestrogenic effect of compound 1, 7 and 8 were respectively 20%, 75% and 83% less and at the dose of 5 mg/kg the oestrogenic effect of compound 2 was 60% less than that of oestradiol 0.05 mg/kg.
as §2

## CC/C(=C(\c1ccccc1)c1ccc(OCCN(CC)CC)cc1)C1CCCC1 [Compound 8, (Z)-2-cyclopentyl-1-[p-(N,N-diethyl-2-aminoethoxy)phenyl]-1-phenyl-1-butene]
Immature mouse uterus [1]; 5 mg/kg
  inhibition of oestradiol induced effect on mouse uterus: 30%
Immature mouse uterus [1]; Table 2, 5 mg/kg, with oestradiol 0.05 mg/kg
  Given with oestradiol: reduction in mice uterus weight: 32%
Mouse uterus [2]
  decrease in the weight of mouse uterus together with medroxyprogesterone acetate: 16%
Mouse uterus [3]; 0.05 mg/kg
  progestanic effect (in words): could be considered to be a progestanic one
Mouse uterus [3]; 0.05 mg/kg (lowest dose)
  decrease in uterus weight: 12%
[4]
  IC50: 1000 to 5000 nM
Estrogen receptors
  IC50: 100 to 1000 nM
Mouse uterus [5]; Table 2, 0.5 mg/kg, with medroxyprogesterone acetate 0.06 mg/kg
  Given with medroxyprogesterone acetate: reduction in mice uterus weight: 16%
Mouse uterus [5]; higher doses, together with medroxyprogesterone acetate
  effect with medroxyprogesterone acetate at higher doses (in words): an antiprogestanic effect was achieved
Mouse uterus [5]; together with medroxyprogesterone acetate
  antiprogestanic / synergistic effect with medroxyprogesterone acetate (in words): neither synergism nor inhibition of medroxyprogesterone acetate was seen
Immature mouse uterus [6]; 0.5 mg/kg, s.c., immature mice
  oestrogenic effect, % less than that of oestradiol 0.05 mg/kg: 83%
Immature mouse uterus [6]; immature mouse uterus weight
  estrogenic effect (in words): dose dependent
Immature mouse uterus [6]; increased doses (above 0.05 mg/kg), given alone
  estrogenic effect at increased doses (in words): the estrogenic effect became evident
